Source: US9199963B2, “Heterocyclic compound” (Takeda Pharmaceutical Company Limited, priority 2013, dated 2015)

Assays:
[1] = molecular target: T1, human MCHR1 (Homo sapiens, UniProt Q99705); experiment: MCH receptor 1 antagonistic activity using Ca2+ mobilization assay; type: cell-based; settings: test compound 0.1 μM; ligand MCH (4-19) 2 nM; human MCHR1-expressing CHO cells (clone #4); read-out: Inhibition rate % (0.1 μM)
T1 construct: expressed in transfected cells; host or cells: CHO dhfr- cells, clone #4
Experimental: Measurement of MCH Receptor 1 Antagonistic Activity of Test Compound Using Ca^2+ Mobilization Assay
Using an expression vector plasmid introduced with human MCHR1 gene for expression in animal cells, human MCHR1 gene was introduced into CHO cells (CHO dhfr^−) by Lipofectamine LTX (Invitrogen). The cells were cultured in selection MEMα medium [445 mL of MEMα medium without nucleic acid and added with 5 mL of Penicillin-Streptomycin (Invitrogen) and 50 mL of dialyzed fetal bovine serum]. Colony 24 clones grown in the selection medium, which were human MCHR1 gene-expressing CHO cell candidates, were selected. […] An integrated dispensing function fluorometer (CellLux, PerkinElmer) was used for Ca^2+ mobilization assay. […] The medium was removed, and the cells were washed with phosphate buffered saline (PBS). A Ca^2+ indicator dye reagent (DOJINDO LABORATORIES, Ca screening no-wash kit Fluo4) was added at 100 μL/well, and the dye was allowed to penetrate into the cells for 30 min in an incubator at 5% CO2, 37° C. The plate was set on a plate reader. First, a test compound solution diluted with an assay buffer [10 mM HEPES (pH 7.4), 1× assay buffer containing 0.1% BSA (DOJINDO LABORATORIES, attached to Ca screening no-wash kit Fluo4)] or DMSO solution was added at 50 μL/well, and then ligand MCH (4-19) peptide (final concentration 2 nM) diluted with assay buffer or DMSO was added at 50 μL/well, during which changes in intracellular fluorescence were measured at 2 second intervals.

[2] = molecular target: T2, human MCH receptor 1 (MCHR1) (Homo sapiens, UniProt Q99705); experiment: Human MCH receptor 1 (MCHR1) competitive inhibitory activity using binding assay; settings: test compound 0.1 μM; [125I]-MCH (4-19); human MCHR1-expressing CHO cellular membrane fraction; read-out: Binding inhibition rate % (0.1 μM)
T2 construct: expressed in transfected cells; host or cells: CHO cell clone 57 (described in WO01/82925); membrane fraction
Experimental: Determination of Human MCH Receptor 1 (MCHR1) Competitive Inhibitory Activity of Test Compound Using Binding Assay
1. Preparation of Membrane Fraction
In phosphate buffered saline (pH 7.4) supplemented with 5 mM EDTA (ethylenediaminetetraacetic acid) were respectively suspended human MCHR1-expressing CHO cells (1×10^8 cells) and centrifuged. Homogenate buffer (10 mL, 10 mM NaHCO3, 5 mM EDTA, pH 7.5, 0.5 mM PMSF (phenylmethylsulfonyl fluoride), 20 mg/L leupeptin, 4 mg/L E-64, 1 mg/L pepstatin A) was added to the pellets of the cells and, using Polytron Homogenizer, the mixture was homogenated. The supernatant obtained after centrifugation at 400×g for 10 min was further centrifuged at 100,000×g for 1 hr to give precipitate of the membrane fraction. The precipitate was suspended in 2 mL of assay buffer [20 mM Tris-HCl (pH 7.5), 5 mM EDTA, 0.5 mM PMSF, 20 mg/L leupeptin, 4 mg/L E-64, 1 mg/L pepstatin A]. The membrane fractions were suspended in assay buffer to a protein concentration of 2 mg/mL, and after dispensing, preserved at −80° C. and used upon thawing each time when in use.
The MCHR1 ligand binding inhibitory activity of the test compound was determined as follows.
The mixture was reacted with stirring at room temperature for 1 hr, and the plate was set on FilterMate Harvester (PerkinElmer). […] The glass filter plate was dried, MicroScint 0 (PerkinElmer) was added at 25 μL/well, and the resulting radioactivity was measured by TopCount liquid scintillation counter (PerkinElmer). The binding inhibition rate of the test compound was calculated by the following formula. Binding inhibition(%)=100−(radioactivity upon addition of test compound and hot MCH−radioactivity upon addition of cold MCH and hot MCH solution)/(radioactivity upon addition of DMSO solution and hot MCH−radioactivity upon addition of cold MCH and hot MCH solution)×100

T2 sequence (Q99705 whole entry): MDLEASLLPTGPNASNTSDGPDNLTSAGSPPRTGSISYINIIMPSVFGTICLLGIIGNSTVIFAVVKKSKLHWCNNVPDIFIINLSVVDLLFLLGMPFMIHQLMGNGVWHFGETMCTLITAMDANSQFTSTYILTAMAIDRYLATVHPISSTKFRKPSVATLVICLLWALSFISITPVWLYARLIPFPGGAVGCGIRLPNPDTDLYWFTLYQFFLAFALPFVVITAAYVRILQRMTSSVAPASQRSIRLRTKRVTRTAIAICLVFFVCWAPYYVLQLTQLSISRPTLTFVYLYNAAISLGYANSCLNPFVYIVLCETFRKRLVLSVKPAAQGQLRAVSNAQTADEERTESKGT
T1 sequence (Q99705 whole entry): as above

inhibition at 0.1 µM [1] [%]	inhibition at 0.1 µM [2] [%]	Compound
55	68	Cc1c2cc(-n3ccc(OCc4ccc(Cl)s4)cc3=O)ccc2nn1C1CC1 [Example 8, 4-[(5-chlorothiophen-2-yl)methoxy]-1-(2-cyclopropyl-3-methyl-2H-indazol-5-yl)pyridin-2(1H)-one]
72	71	Cc1c2cc(-n3ccc(OCc4cc(C(F)(F)F)cs4)cc3=O)ccc2nn1C1CC1 [Example 43, 1-(2-cyclopropyl-3-methyl-2H-indazol-5-yl)-4-{[4-(trifluoromethyl)thiophen-2-yl]methoxy}pyridin-2(1H)-one]
63	45	Cc1c2cc(-n3ccc(OCc4ccc(Cl)cn4)cc3=O)ccc2nn1C1CC1 [Example 18, 4-[(5-chloropyridin-2-yl)methoxy]-1-(2-cyclopropyl-3-methyl-2H-indazol-5-yl)pyridin-2(1H)-one]
51	39	Cc1c2cc(-n3ccc(OCc4ccc(C(F)(F)F)s4)cc3=O)ccc2nn1C [Example 10, 1-(2,3-dimethyl-2H-indazol-5-yl)-4-{[5-(trifluoromethyl)thiophen-2-yl]methoxy}pyridin-2(1H)-one]
93	68	Cc1c2cc(-n3ccc(OCc4ccc(Br)cn4)cc3=O)ccc2nn1C1CC1 [Example 28, 4-[(5-bromopyridin-2-yl)methoxy]-1-(2-cyclopropyl-3-methyl-2H-indazol-5-yl)pyridin-2(1H)-one]
43	49	Cc1c2cc(-n3ccc(OCc4ccc(C(F)(F)F)s4)cc3=O)ccc2nn1C1CC1 [Example 45, 1-(2-cyclopropyl-3-methyl-2H-indazol-5-yl)-4-{[5-(trifluoromethyl)thiophen-2-yl]methoxy}pyridin-2(1H)-one]
96	76	Cc1c2cc(-n3ccc(OCc4nc(C(F)(F)F)cs4)cc3=O)ccc2nn1C1CC1 [Example 33, 1-(2-cyclopropyl-3-methyl-2H-indazol-5-yl)-4-{[4-(trifluoromethyl)-1,3-thiazol-2-yl]methoxy}pyridin-2(1H)-one]
70	55	Cc1c2cc(-n3ccc(OCc4cc(C(F)(F)F)cs4)cc3=O)ccc2nn1C [Example 41, 1-(2,3-dimethyl-2H-indazol-5-yl)-4-{[4-(trifluoromethyl)thiophen-2-yl]methoxy}pyridin-2(1H)-one]

The next lines start with the compound.

Compound	inhibition at 0.1 µM [1] [%]	inhibition at 0.1 µM [2] [%]
Cc1c2cc(-n3ccc(OCc4csc(C(F)(F)F)n4)cc3=O)ccc2nn1C [Example 39, 1-(2,3-dimethyl-2H-indazol-5-yl)-4-{[2-(trifluoromethyl)-1,3-thiazol-4-yl]methoxy}pyridin-2(1H)-one]	71	33
Cc1c2cc(-n3ccc(OCc4ccccc4)cc3=O)ccc2nn1C1CC1 [Example 7, 4-(benzyloxy)-1-(2-cyclopropyl-3-methyl-2H-indazol-5-yl)pyridin-2(1H)-one]	66	44
Cc1c2cc(-n3ccc(OCc4nc(Br)cs4)cc3=O)ccc2nn1C [Example 30, 4-[(4-bromo-1,3-thiazol-2-yl)methoxy]-1-(2,3-dimethyl-2H-indazol-5-yl)pyridin-2(1H)-one]	89	34
Cc1c2cc(-n3ccc(OCc4ccc(Br)s4)cc3=O)ccc2nn1C [Example 27, 4-[(5-bromothiophen-2-yl)methoxy]-1-(2,3-dimethyl-2H-indazol-5-yl)pyridin-2(1H)-one]	92	60
Cc1c2cc(-n3ccc(OCc4ccc(Cl)cc4)cc3=O)ccc2nn1C1CC1 [Example 5, 4-[(4-chlorobenzyl)oxy]-1-(2-cyclopropyl-3-methyl-2H-indazol-5-yl)pyridin-2(1H)-one]	86	78
Cc1c2cc(-n3ccc(OCc4ccc(F)cc4)cc3=O)ccc2nn1C [Example 42, 1-(2,3-dimethyl-2H-indazol-5-yl)-4-[(4-fluorobenzyl)oxy]pyridin-2(1H)-one]	65	46
CCn1nc2ccc(-n3ccc(OCc4ccc(Cl)cc4)cc3=O)cc2c1C [Example 2, 4-[(4-chlorobenzyl)oxy]-1-(2-ethyl-3-methyl-2H-indazol-5-yl)pyridin-2(1H)-one]	73	43
Cc1c2c(F)c(-n3ccc(OCc4ccc(Cl)cc4)cc3=O)ccc2nn1C [Example 32, 4-[(4-chlorobenzyl)oxy]-1-(4-fluoro-2,3-dimethyl-2H-indazol-5-yl)pyridin-2(1H)-one]		54
Cc1c2cc(-n3ccc(OCc4ccc(Br)cn4)cc3=O)ccc2nn1C [Example 23, 4-[(5-bromopyridin-2-yl)methoxy]-1-(2,3-dimethyl-2H-indazol-5-yl)pyridin-2(1H)-one]	77	57
Cc1c2cc(-n3ccc(OCc4cc5ccccc5o4)cc3=O)ccc2nn1C [Example 16, 4-(1-benzofuran-2-ylmethoxy)-1-(2,3-dimethyl-2H-indazol-5-yl)pyridin-2(1H)-one]	57	47
Cc1c2cc(-n3ccc(OCc4nc(C(F)(F)F)cs4)cc3=O)ccc2nn1C [Example 38, 1-(2,3-dimethyl-2H-indazol-5-yl)-4-{[4-(trifluoromethyl)-1,3-thiazol-2-yl]methoxy}pyridin-2(1H)-one]	78	45
Cc1c2cc(-n3ccc(OCc4ccccc4)cc3=O)ccc2nn1C [Example 9, 4-(benzyloxy)-1-(2,3-dimethyl-2H-indazol-5-yl)pyridin-2(1H)-one]		36
Cc1c2cc(-n3ccc(OCc4cccc(Cl)c4)cc3=O)ccc2nn1C [Example 12, 4-[(3-chlorobenzyl)oxy]-1-(2,3-dimethyl-2H-indazol-5-yl)pyridin-2(1H)-one]	38	42
CCn1nc2ccc(-n3ccc(OCc4nc(C(F)(F)F)cs4)cc3=O)cc2c1C [Example 36, 1-(2-ethyl-3-methyl-2H-indazol-5-yl)-4-{[4-(trifluoromethyl)-1,3-thiazol-2-yl]methoxy}pyridin-2(1H)-one]	83	37
CCCn1nc2ccc(-n3ccc(OCc4ccc(Cl)cc4)cc3=O)cc2c1C [Example 3, 4-[(4-chlorobenzyl)oxy]-1-(3-methyl-2-propyl-2H-indazol-5-yl)pyridin-2(1H)-one]		37
